The text below walks through data of ChEMBL document CHEMBL3120093 (J Med Chem, 2014).

By AUC is commonly meant the area under the concentration-time curve, a measure of exposure. Low values mean low exposure, high ones high exposure. The term Vd denotes a proportionality between amount in the body and measured concentration, not a real space. As usually defined, the half-life is the time in which the quantity being followed falls by half. As a reminder, the clearance is the rate of elimination divided by the concentration. Low values mean inefficient removal, high ones efficient removal. In general, Kp refers to the ratio of the level in a tissue or fluid to that in plasma or blood.

Bounds are passed on as bounds.

A short description of data set [1]: Plasma concentration in dog at […], po after 24 hrs. In kind it is ADME, organism-based, Canis lupus familiaris. More on the design: dose 2.3 mg/kg, route oral.
A short description of data set [2]: Oral bioavailability in dog at […] after 24 hrs. In kind it is ADME, organism-based, Canis lupus familiaris. The following applies: in vivo.
The nature of data set [3]: AUC in dog at […], po after 24 hrs. Also on record: time < 24 hr, dose 2.3 mg/kg, route oral. The note with it: plasma. In kind it is ADME, organism-based, Canis lupus familiaris.
A short description of data set [4]: Plasma concentration in rat at 5 mg/kg, po after 24 hrs. In kind it is ADME, organism-based. More on the design: dose 5 mg/kg, route oral.
Data set [5] can be described thus: Drug uptake in rat liver at 5 mg/kg, po after 24 hrs. Also on record: dose 5 mg/kg, route oral. The note with it: read-out: Drug uptake. In kind it is ADME, organism-based.
The nature of data set [6]: Plasma concentration in rat at 5 mg/kg, po after 4 hrs. In kind it is ADME, organism-based. More on the design: dose 5 mg/kg, route oral.
Data set [7] is described as follows: Drug uptake in rat liver at 5 mg/kg, po after 4 hrs. In kind it is ADME, organism-based. More on the design: dose 5 mg/kg, route oral. The note with it: read-out: Drug uptake.
Data set [8] is described as follows: AUC in rat at 5 mg/kg, po after 4 hrs. The following applies: plasma. In kind it is ADME, organism-based. Also on record: time < 4 hr, dose 5 mg/kg, route oral.
Data set [9] is described as follows: Oral bioavailability in rat at 5 mg/kg after 24 hrs. In kind it is ADME, organism-based. The note with it: in vivo.
Data set [10] can be described thus: AUC in rat at 5 mg/kg, po after 24 hrs. In kind it is ADME, organism-based. The following applies: plasma. Also on record: time < 24 hr, dose 5 mg/kg, route oral.
Data set [11] in a line: Permeability of the compound at PH 7.4 by PAMPA. The note with it: read-out: permeability. In kind it is ADME. In general terms: The PAMPA barrier holds no transporters, so it reflects passive diffusion.
For data set [12], the system named is Liver microsome. The experiment in a line: Metabolic stability of the compound in rat liver microsomes assessed as […] formation at 10 uM after 30 mins. The following applies: 0.5 h. In kind it is ADME. On the technique in general: Liver microsomes are vesicles of endoplasmic reticulum, rich in cytochrome P450 enzymes.
The test system of data set [13] is Liver microsome. Description: Metabolic stability of the compound in human liver microsomes assessed as cyanide adduct formation at 10 uM after 30 mins. In kind it is ADME. The note with it: 0.5 h.
Data set [14] deals with Liver microsome. The experiment in a line: Metabolic stability of the compound in human liver microsomes assessed as GSH adduct formation at 10 uM after 30 mins. The following applies: 0.5 h. In kind it is ADME.
Data set [15] can be described thus: Plasma concentration in dog at 3 mg/kg, po after 24 hrs. In kind it is ADME, organism-based, Canis lupus familiaris. Also on record: dose 3 mg/kg, route oral.
A short description of data set [16]: Oral bioavailability in dog at 3 mg/kg after 24 hrs. In kind it is ADME, organism-based, Canis lupus familiaris. The following applies: plasma.
Data set [17] is described as follows: AUC in dog at 3 mg/kg, po after 24 hrs. In kind it is ADME, organism-based, Canis lupus familiaris. More on the design: time < 24 hr, dose 3 mg/kg, route oral. The following applies: plasma.
A short description of data set [18]: Volume of distribution in dog at 1 mg/kg, iv after 24 hrs. In kind it is ADME, organism-based, Canis lupus familiaris. More on the design: dose 1 mg/kg, route intravenous. The note with it: in vivo.
Data set [19] in a line: Half life in dog at 1 mg/kg, iv after 24 hrs. In kind it is ADME, organism-based, Canis lupus familiaris. More on the design: dose 1 mg/kg, route intravenous. The note with it: in vivo.
A short description of data set [20]: Clearance in dog at 1 mg/kg, iv after 24 hrs. In kind it is ADME, organism-based, Canis lupus familiaris. More on the design: dose 1 mg/kg, route intravenous. The note with it: in vivo.
The nature of data set [21]: Clearance in rat at 2 mg/kg, iv after 4 hrs. In kind it is ADME, organism-based. The note with it: in vivo. Also on record: dose 2 mg/kg, route intravenous.
Data set [22] can be described thus: Half life in rat at 2 mg/kg, iv after 24 hrs. In kind it is ADME, organism-based. Also on record: dose 2 mg/kg, route intravenous. The note with it: in vivo.
Data set [23] can be described thus: Volume of distribution in rat at 2 mg/kg, iv after 24 hrs. In kind it is ADME, organism-based. More on the design: dose 2 mg/kg, route intravenous. The note with it: in vivo.
Data set [24] is described as follows: Clearance in rat at 2 mg/kg, iv after 24 hrs. In kind it is ADME, organism-based. The note with it: in vivo. Also on record: dose 2 mg/kg, route intravenous.
In data set [25] the test system is Liver microsome. Description: Metabolic stability of the compound in human liver microsomes assessed as GSH adduct formation at 10 uM after 30 mins. The following applies: 0.5 h.
Data set [26] can be described thus: Oral bioavailability in mouse at 20 mg/kg after 24 hrs. In kind it is ADME, organism-based. The following applies: plasma.
The nature of data set [27]: AUC in mouse at 20 mg/kg, po after 24 hrs. In kind it is ADME, organism-based. More on the design: time < 24 hr, dose 20 mg/kg, route oral. The following applies: plasma.
Data set [28] can be described thus: Drug uptake in mouse liver at 20 mg/kg, po after 24 hrs. Also on record: dose 20 mg/kg, route oral. In kind it is ADME, organism-based. The following applies: read-out: Drug uptake.
Data set [29] can be described thus: Plasma concentration in mouse at 20 mg/kg, po after 24 hrs. In kind it is ADME, organism-based. More on the design: dose 20 mg/kg, route oral.
A short description of data set [30]: Volume of distribution in mouse at 5 mg/kg, iv after 24 hrs. In kind it is ADME, organism-based. Also on record: dose 5 mg/kg, route intravenous. The following applies: in vivo.
A short description of data set [31]: Half life in mouse at 5 mg/kg, iv after 24 hrs. More on the design: dose 5 mg/kg, route intravenous. In kind it is ADME, organism-based. The note with it: in vivo.
A short description of data set [32]: Clearance in mouse at 5 mg/kg, iv after 24 hrs. Also on record: dose 5 mg/kg, route intravenous. The following applies: in vivo. In kind it is ADME, organism-based.
Data set [33] is described as follows: Permeability from basolateral to apical side of human Caco2 cells. In kind it is ADME, cell-based. The following applies: Caco-2, read-out: permeability. (Passage across Caco-2 layers is used to estimate intestinal permeability.)
A short description of data set [34]: Permeability from apical to basolateral side of human Caco2 cells. In kind it is ADME, cell-based. The following applies: Caco-2, read-out: permeability.
Data set [35] can be described thus: Ratio of drug level in liver to plasma in rat at 5 mg/kg, po after 24 hrs. In kind it is ADME, organism-based. Also on record: dose 5 mg/kg, route oral.

With `COC(=O)N[C@H](C(=O)N1CCC[C@H]1c1nc(-c2ccc(-c3ccc(-c4c[nH]c([C@@H]5CCCN5C(=O)[C@@H](NC(=O)OC)C(C)C)n4)cc3)cc2)c[nH]1)C(C)C`, the concentration at 24 h in data set [1] worked out at 26 nM; in data set [4], 18 nM; in data set [5], 103 nM. Moreover, the bioavailability at 24 h in data set [2] is 108%. Besides, the area under the curve (AUC) at 24 h in data set [3] was 11 µM·h; in [10], 4.8 µM·h. In addition, the concentration at 4 h is 661 nM in data set [6] and 2240 nM in [7]. In [8], this compound displayed an AUC at 4 h of 2.18 µM·h. The bioavailability in [9] worked out at 50%. For the same compound, the Papp in data set [11] was determined as 49.6 ×10⁻⁶ cm/s.

Regarding `O=C([C@@H](c1ccccc1)N1CCCCC1)N1CCC[C@H]1c1ncc(-c2ccc(-c3ccc(-c4cnc([C@@H]5CCCN5C(=O)[C@@H](c5ccccc5)N5CCCCC5)[nH]4)cc3)cc2)[nH]1`, the Stability entry in data set [12] was “Unstable”; in [13], “Unstable”; in data set [14], “Stable”; in data set [25], “Stable”. In [15], this compound came in with a concentration at 24 h of 8.3 nM. In [16], the bioavailability came to 14%. The compound further returned an AUC at 24 h in data set [17] of 0.272 µM·h. Moreover, the Vd in data set [18] came out at 10 L/kg; in data set [23], 20 L/kg. Also, the figures for the half-life in [19] and in [22] were over 12 h and 7.7 h, respectively. The clearance stood at 28 mL/min/kg in data set [20], 58 mL/min/kg in [21] and 63 mL/min/kg in data set [24]. Moreover, the concentration at 4 h is 13 nM in [6] and 1200 nM in data set [7]. The compound further had an AUC at 4 h in data set [8] of 0.047 µM·h. Further, in data set [11], the Papp came out at 25.1 ×10⁻⁶ cm/s.

With `COC(=O)N[C@@H](C(=O)N1CCC[C@H]1c1ncc(-c2ccc(-c3ccc(-c4cnc([C@@H]5CCCN5C(=O)[C@H]5CCCO5)[nH]4)cc3)cc2)[nH]1)c1ccccc1`, the bioavailability in [26] came to 17%; in data set [16], 45%; in [9], 6.8%. The AUC at 24 h in data set [27] worked out at 15.1 µM·h; in data set [17], 1.52 µM·h; in data set [10], 1.83 µM·h. Moreover, the concentration at 24 h stood at 253 nM in [28]; 59 nM in [29]; 6 nM in [15]; 4.5 nM in [4]; 116 nM in data set [5]. The volume of distribution (Vd) in data set [30] came out at 1.9 L/kg; in data set [18], 7.5 L/kg; in data set [23] it was 0.3 L/kg. Moreover, the half-life in [31] is 2.9 h; in [19] it was over 10 h; in [22], 6.9 h. Also, the clearance worked out at 5.3 mL/min/kg in data set [32], 22 mL/min/kg in [20] and 4.4 mL/min/kg in data set [24]. Also, the Papp B→A in data set [33] was 10.5 ×10⁻⁶ cm/s. Besides, the Papp A→B in data set [34] was under 1.5 ×10⁻⁶ cm/s. Also, the Kp at 24 h in data set [35] was 26. The values for the concentration at 4 h in data set [6] and in [7] were 234 nM and 2570 nM, respectively. For the same compound, the AUC at 4 h in data set [8] came to 0.809 µM·h. In addition, the Papp in data set [11] was 46.4 ×10⁻⁶ cm/s.
